Laboratory results taken from patent publication US20260209195A1, “METHOD FOR PRODUCING 2-AMINO-5-SUBSTITUTED-1,3,4-OXADIAZOLE” (MITSUBISHI GAS CHEMICAL NEXT COMPANY, INC., priority 2022, published 2026).

Assay: solubility of 2-amino-5-methyl-1,3,4-oxadiazole in water and aqueous NaCl solution (salting-out effect)
Assay type: physicochemical

SMILES: Cc1nnc(N)o1 [2-amino-5-methyl-1,3,4-oxadiazole]
- solubility in a 10 mass % aqueous NaCl solution (10 mass % aqueous NaCl solution (30° C. as in the same sentence)): 7.9 % by mass
- solubility in a 26.4 mass % aqueous NaCl solution (30° C.): 3.5 % by mass
- solubility in a 26.4 mass % aqueous NaCl solution (−5° C.): 1.1 % by mass
- solubility in water (water, 30° C.): 13.9 % by mass
